Results published in patent US9988408B2, “Cytotoxic agents for conjugation to a cell binding molecule” (priority 2013, dated 2018).

Legend:
Ramos cells = assay: In vitro cytotoxicity (potency) against Ramos cells, WST-8 cell viability assay; assay type: cell-based; conditions: Homo sapiens, 120 h, read-out: IC50, in vitro potency against Ramos cells
Description: In Vitro Potency Measurement Against Ramos Cells in 37° C., 5 Day Incubation
(§1) General Procedure Used: Samples of unconjugated free drug compounds or drug conjugates were added to 96-well flat bottomed tissue culture plates and titrated using serial dilutions to cover the desired molar range. Antigen positive (Ag^+) or Antigen negative (Ag^−) cells were added to the wells in specific cell densities (1000˜10000 cells/wall) in such a way that there were triplicate samples for each drug concentration for each corresponding cell line. All other cell lines were grown in RPMI-1640 (catalog no. 11875-085, Invitrogen), supplemented with 10% fetal bovine serum and gentamycin. The plates were then incubated at 37° C. in an atmosphere of 5% CO2 for 5 days. At the end of the incubation period cytotoxic potencies were then assessed using a WST-8 based cell viability assay and surviving cells were measured by developing with WST-8 (2-7 hours). The absorbance in each well was measured and the surviving fraction of cells at each concentration was plotted to reveal the cytotoxicity and/or antigen specificity (of the conjugates). The potency and specificity of the antibody-drug conjugates were measured against antigen-expressing cells, with and without the additions of an excess amount of blocking unconjugated antibody to show specificity of the killing effect.

Raji cells = assay: In vitro cytotoxicity (potency) against Raji cells, WST-8 cell viability assay; assay type: cell-based; conditions: Homo sapiens, 120 h, read-out: IC50 values towards Raji cells
Description: In Vitro Potency Measurement Against Raji Cells in 37° C., 5 Day Incubation
as §1

Structure (SMILES)	IC50 (Ramos cells) [nM]	IC50 (Raji cells) [pM]
COc1cc2c(cc1OCP(=O)(COc1cc3c(cc1OC)C(=O)C1C[C@@H](F)C[C@H]1C=N3)NCCCSSc1ccccn1)N=C[C@@H]1C[C@H](F)CC1C2=O (some centres unmarked) [Example 68]	0.1 to 0.5	
C=C1C[C@H]2C=Nc3cc(OCCP(=O)(CCOc4cc5c(cc4OC)C(=O)N4CC(=C)C[C@H]4C=N5)CCSSC)c(OC)cc3C(=O)N2C1 [Example 39]		5 to 11
